Laboratory results as given in patent US20210253518A1, “KINASE INHIBITOR” (NISSAN CHEMICAL CORPORATION, priority 2018, published 2021).
Like-named read-outs stand apart in the source and are kept apart here.

Assays:
Assay in all cases: Off-chip Mobility Shift Assay (MSA method), kinase inhibition
Assay type in all cases: biochemical
SGK3 = target: T1, SGK3 (Homo sapiens, UniProt Q96BR1); settings: for inhibition at 0.1 µM: read-out: inhibition (%) SGK3
T1 sequence (Q96BR1 1-496): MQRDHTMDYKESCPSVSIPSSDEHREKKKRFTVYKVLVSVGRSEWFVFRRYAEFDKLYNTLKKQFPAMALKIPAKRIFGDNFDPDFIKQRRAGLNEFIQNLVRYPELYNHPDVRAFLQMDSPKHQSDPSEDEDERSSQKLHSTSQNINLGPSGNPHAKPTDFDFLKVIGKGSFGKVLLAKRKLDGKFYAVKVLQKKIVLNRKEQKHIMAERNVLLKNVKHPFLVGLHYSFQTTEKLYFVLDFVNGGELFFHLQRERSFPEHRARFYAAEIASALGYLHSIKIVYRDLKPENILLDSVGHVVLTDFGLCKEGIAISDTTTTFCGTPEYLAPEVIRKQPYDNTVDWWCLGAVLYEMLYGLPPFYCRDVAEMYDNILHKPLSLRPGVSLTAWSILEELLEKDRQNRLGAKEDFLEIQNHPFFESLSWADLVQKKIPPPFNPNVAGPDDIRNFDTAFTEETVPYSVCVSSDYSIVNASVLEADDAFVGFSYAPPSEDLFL
Description: (§1) For compound k-1:B-1, inhibitory activity evaluation (calculation of 50% inhibitory concentration (IC50)) was performed on 8 kinds of kinases (CGK2, LATS2, MSK1, p70S6K, PKACα, PKACβ, SGK2, SGK3). The activity was measured using the Off-chip Mobility Shift Assay (MSA method) described below. The compound was added such that the test concentration of k-1:B-1 was in 10 steps from the final concentration of 10 μM to 0.3 nM.
(§2) As an analysis method of the data, the mean signal of the control well containing all reaction components was set to 0% inhibition, the mean signal without enzyme addition was set to 100% inhibition, and the inhibition rate was calculated from the mean signal of 2 wells of each test substance test. The IC50 value was obtained by approximating a plot based on the test substance concentration and inhibition rate to a 4 parameter logistics curve by using the Excel Solver add-in and by the non-linear least squares method.
(§3) 5 μL of k-1:B-1 solution at 4-fold concentration, 5 μL of substrate/ATP/metal solution at 4-fold concentration, and 10 μL of kinase solution at 2-fold concentration, each prepared with assay buffer (20 mM HEPES, 0.01% Triton X-100, 2 mM DTT, pH 7.5), were mixed in the wells of a polypropylene 384-well plate and reacted at room temperature for 1 or 5 hr. Successively, 70 μL of Termination Buffer (QuickScout Screening Assist MSA; Carna Biosciences) was added to discontinue the reaction. Then, the substrate peptide and the phosphorylated peptide in the reaction solution were separated and quantified by the LabChip system (Perkin Elmer). The kinase reaction was evaluated by the resultant product ratio (P/(P+S)) calculated from the substrate peptide peak height (S) and the phosphorylated peptide peak height (P).
(§4) For compounds k-1:H-7, k-1:H-1, k-1:D-1, k-1:J-1, and k-1:B-1, inhibitory rate at 100 nM was calculated on 8 kinds of kinases (CGK2, LATS2, MSK1, p70S6K, PKACα, PKACβ, SGK2, SGK3). The activity was measured using the MSA method. As an analysis method of the data, the mean signal of the control well containing all reaction components was set to 0% inhibition, the mean signal without enzyme addition was set to 100% inhibition, and the inhibition rate was calculated from the mean signal of 2 wells of each test substance test.
as §3, with “a compound” for “k-1:B-1”

PKACβ = PKACβ (Homo sapiens, UniProt P22694); settings: for inhibition at 0.1 µM: read-out: inhibition (%) PKACβ
Description: as §1, §2, §3, §4
as §3, with “a compound” for “k-1:B-1”

SGK2 = target: T2, SGK2 (Homo sapiens, UniProt Q9HBY8); settings: for inhibition at 0.1 µM: read-out: inhibition (%) SGK2
T2 sequence (Q9HBY8 1-367): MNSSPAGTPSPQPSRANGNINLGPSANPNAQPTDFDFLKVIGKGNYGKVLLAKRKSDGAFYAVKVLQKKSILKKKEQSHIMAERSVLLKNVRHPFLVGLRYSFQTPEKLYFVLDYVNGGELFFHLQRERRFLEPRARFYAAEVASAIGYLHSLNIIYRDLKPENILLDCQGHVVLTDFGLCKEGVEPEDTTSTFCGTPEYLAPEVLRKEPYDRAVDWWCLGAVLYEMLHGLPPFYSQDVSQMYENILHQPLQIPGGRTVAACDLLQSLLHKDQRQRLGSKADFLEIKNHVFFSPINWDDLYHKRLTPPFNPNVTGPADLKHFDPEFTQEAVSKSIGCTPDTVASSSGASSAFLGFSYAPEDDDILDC
Description: as §1, §2, §3, §4
as §3, with “a compound” for “k-1:B-1”

CGK2 = target: T3, CGK2 (Homo sapiens, UniProt Q13237); settings: for inhibition at 0.1 µM: read-out: inhibition (%) CGK2
T3 sequence (Q13237 1-762): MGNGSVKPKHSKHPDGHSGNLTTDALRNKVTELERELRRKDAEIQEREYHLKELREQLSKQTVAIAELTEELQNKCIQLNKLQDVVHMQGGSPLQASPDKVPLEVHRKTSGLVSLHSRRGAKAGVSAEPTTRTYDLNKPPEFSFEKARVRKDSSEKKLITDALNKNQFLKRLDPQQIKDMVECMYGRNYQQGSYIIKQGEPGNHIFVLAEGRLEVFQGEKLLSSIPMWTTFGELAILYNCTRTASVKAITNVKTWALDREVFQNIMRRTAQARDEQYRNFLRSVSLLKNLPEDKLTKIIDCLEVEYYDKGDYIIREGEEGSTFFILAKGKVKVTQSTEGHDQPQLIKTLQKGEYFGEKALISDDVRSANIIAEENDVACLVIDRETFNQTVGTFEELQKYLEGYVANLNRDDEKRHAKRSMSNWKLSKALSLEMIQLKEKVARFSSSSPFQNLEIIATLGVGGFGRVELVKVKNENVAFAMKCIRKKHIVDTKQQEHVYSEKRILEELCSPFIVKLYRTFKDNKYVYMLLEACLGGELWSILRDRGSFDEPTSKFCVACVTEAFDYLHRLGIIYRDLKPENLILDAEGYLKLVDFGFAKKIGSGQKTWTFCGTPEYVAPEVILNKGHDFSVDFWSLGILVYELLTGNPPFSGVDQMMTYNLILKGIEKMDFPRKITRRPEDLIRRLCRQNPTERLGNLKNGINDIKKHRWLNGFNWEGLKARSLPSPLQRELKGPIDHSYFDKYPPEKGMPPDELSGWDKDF
Description: as §1, §2, §3, §4
as §3, with “a compound” for “k-1:B-1”

[1] = MSA method, 10 steps from 10 μM to 0.3 nM

Row | SMILES | IC50 (SGK3; [1]) [µM] | inhibition at 0.1 µM (SGK3; at 100 nM, MSA method) [%] | IC50 (PKACβ; [1]) [µM] | inhibition at 0.1 µM (PKACβ; at 100 nM, MSA method) [%] | IC50 (SGK2; [1]) [µM] | inhibition at 0.1 µM (SGK2; at 100 nM, MSA method) [%] | IC50 (CGK2; [1]) [µM] | inhibition at 0.1 µM (CGK2; at 100 nM, MSA method) [%] | inhibition at 0.1 µM (SGK3) [%] | inhibition at 0.1 µM (PKACβ) [%] | inhibition at 0.1 µM (SGK2) [%] | inhibition at 0.1 µM (CGK2) [%]
1 | CC/C(=N\NC(=O)C(C)Nc1ccccc1)c1ccc(O)c(C)c1O (stereo not drawn) [k-1:B-1] | 0.0633 | 65.9 | 0.0293 | 80.1 | 0.0132 | 87.3 | 0.0299 | 83.2 |  |  |  | 
2 | CC/C(=N\NC(=O)CNc1cccc(O)c1)c1ccc(O)c(C)c1O [k-1:D-1] |  |  |  |  |  |  |  |  | 93.6 | 98.5 | 99.9 | 97.2
3 | CCC(=NNC(=O)CNc1ccccc1)c1ccc(O)c(C)c1O [k-1:H-1] |  | 73.7 |  | 87.7 |  | 93.6 |  | 77.6 |  |  |  | 
4 | CCC(=NNC(=O)C(CC)Nc1ccccc1)c1ccc(O)c(C)c1O (stereo not drawn) [k-1:H-7] |  | 44.4 |  | 72 |  | 84.3 |  | 80.8 |  |  |  | 
5 | CC/C(=N\NC(=O)NCc1cccc(O)c1)c1ccc(O)c(C)c1O [k-1:J-1] |  |  |  |  |  |  |  |  | 82.5 | 89.7 | 95.1 | 51.3
